{"source": "patent US7309484B2", "about": "“Compositions and methods for screening antibacterial compounds” (priority 2003, dated 2007)", "tested_on": "B. subtilis liaH mutant HB0920 gene expression", "test": "microbe, parasite or virus in culture", "format": "cell-based, Bacillus subtilis", "conditions": "for fold induction at 100 µg/mL: Bacillus subtilis; for Fold induction 15 min / Fold induction 5 min: 100 μg/mL, listed as zinc-bacitracin", "source_text": "The bacitracin stimulon of B. subtilis was examined using global transcriptome analysis. […] Under most conditions tested, about 60-70 genes were induced greater than 5-fold. […] The scatter-plot represents the data sets obtained for strain HB0920 (yvqH was still detected as bacitracin-inducible due to the presence of a remaining region near the 5′-end of the gene). […] Members of the σ^M (white open squares) and σ^B (small black triangles) regulon are highlighted. All other gene signals are represented as small gray diamonds. Note that for the generation of this graphical display the data sets could not be filtered to remove low quality and non-reproducible signals, thus some of the background signals (small gray diamonds) that appear to represent highly regulated genes are not significant.\nThe liaH-deletion mutant was included in the analysis because the well-characterized LiaH-homologue in E. coli, PspA, functions as a repressor of transcription (Adams et al., 2003, J Bacteriol. 185: 1174-1180; Bordes et al., 2003, Proc Natl Acad Sci USA. 100: 2278-2283, the entire teachings of which are incorporated herein by reference). […] Similar results were obtained with CU1065.\nFor microarray analysis 100 mL of LB medium were inoculated from a fresh overnight LB-plate and incubated at 37° C. with aeration until the culture reached an O.D.600≈0.45, when the culture was split: 30 mL served as an un-induced control. To the remaining culture bacitracin was added to a final concentration of 100 μg/mL and 30 mL samples were taken 5 and 15 min after addition. The cells were harvested by centrifugation at room temperature and cell pellets were shock frozen and stored at −70° C. for at least 30 min. […] After extraction the RNA was purified using the RNA clean-up protocol of the RNeasy kit (Qiagen) with on-column DNase treatment in order to remove abundant small RNA molecules (tRNAs and 5S rRNA) and residual genomic DNA.\nEach slide contains 9220 features corresponding to duplicate copies of each open reading frame, additional PCR products for some ORFs, rRNA genes, and other controls. RNA preparations were used to synthesize Cy3- and Cy5-labeled cDNA and hybridization was performed as described (Ye et al., 2000, J Bacteriol. 182: 4458-4465; Ye et al., 2001, J Microbiol Methods. 47: 257-272, the entire teaching of which are incorporated herein by reference). All comparisons were performed twice (once each with Cy3 and Cy5) to control for possible differences in labeling efficiency between fluorophores. Fluorescent signal intensity data was quantified using ArrayVision software (Molecular Dynamics) and normalized to the total detectable mRNA. Mean fluorescence intensity is set to 1.0 with a value of 0.1 corresponding to background. Each expression ratio is represented by at least four separate measurements (duplicate spots on each of two slides).", "note": "Where two headings read alike, the source gives them in different places. Bridge positions count the residues as written; N and C are the ends. Square brackets hold non-standard residues; d marks the D form. Peptide text beside a SMILES is read from it. * marks the point of attachment. Ileψ(thiazoline)Cys = CC[C@H](C)[C@H](N)C1=N[C@H](C(=O)*)CS1; dOrn = NCCC[C@@H](N)C(=O)O"}
{"smiles": "CC[C@H](C)[C@H](N)C1=N[C@H](C(=O)N[C@@H](CC(C)C)C(=O)N[C@H](CCC(=O)O)C(=O)N[C@H](C(=O)N[C@H]2CCCCNC(=O)[C@H](CC(N)=O)NC(=O)[C@@H](CC(=O)O)NC(=O)[C@H](Cc3cnc[nH]3)NC(=O)[C@@H](Cc3ccccc3)NC(=O)[C@H]([C@@H](C)CC)NC(=O)[C@@H](CCCN)NC2=O)[C@@H](C)CC)CS1", "note": "[Bacitracin] ({Ileψ(thiazoline)Cys}-L[dE]IK[dOrn]I[dF]H[dD]N; lactam 4-C)", "values": [{"measurement": "fold induction at 100 µg/mL", "setting": "5 min, read-out: Fold induction 5 min, gene bcrC, 100 μg/mL, 5 min", "value": "~10"}, {"measurement": "fold induction at 100 µg/mL", "setting": "5 min, read-out: Fold induction 5 min, gene cadA (yvgW), 100 μg/mL, 5 min", "value": 58}, {"measurement": "fold induction at 100 µg/mL", "setting": "5 min, read-out: Fold induction 5 min, gene cotY, 100 μg/mL, 5 min", "value": 9.4}, {"measurement": "fold induction at 100 µg/mL", "setting": "5 min, read-out: Fold induction 5 min, gene czcD, 100 μg/mL, 5 min", "value": 61}, {"measurement": "fold induction at 100 µg/mL", "setting": "5 min, read-out: Fold induction 5 min, gene czcO (trkA), 100 μg/mL, 5 min", "value": 33}, {"measurement": "fold induction at 100 µg/mL", "setting": "5 min, read-out: Fold induction 5 min, gene ydhK, 100 μg/mL, 5 min", "value": 12}, {"measurement": "fold induction at 100 µg/mL", "setting": "5 min, read-out: Fold induction 5 min, gene yetG, 100 μg/mL, 5 min", "value": 1.4}, {"measurement": "fold induction at 100 µg/mL", "setting": "5 min, read-out: Fold induction 5 min, gene ykvS, 100 μg/mL, 5 min", "value": 5.9}, {"measurement": "fold induction at 100 µg/mL", "setting": "5 min, read-out: Fold induction 5 min, gene ytzB, 100 μg/mL, 5 min", "value": 2.8}, {"measurement": "fold induction at 100 µg/mL", "setting": "5 min, read-out: Fold induction 5 min, gene yybR, 100 μg/mL, 5 min", "value": 5.4}, {"measurement": "fold induction at 100 µg/mL", "setting": "5 min, read-out: Fold induction 5 min, gene(s) bacAB (ytsCD), 100 μg/mL, 5 min", "value": 280}, {"measurement": "fold induction at 100 µg/mL", "setting": "5 min, read-out: Fold induction 5 min, gene(s) gerAA/AB, 100 μg/mL, 5 min", "value": 7.1}, {"measurement": "fold induction at 100 µg/mL", "setting": "5 min, read-out: Fold induction 5 min, gene(s) ycgRQ, 100 μg/mL, 5 min", "value": 6.7}, {"measurement": "fold induction at 100 µg/mL", "setting": "5 min, read-out: Fold induction 5 min, gene(s) ygaCD, 100 μg/mL, 5 min", "value": 2}, {"measurement": "fold induction at 100 µg/mL", "setting": "5 min, read-out: Fold induction 5 min, gene(s) yhcYZ-yhdA, 100 μg/mL, 5 min", "value": 20}, {"measurement": "fold induction at 100 µg/mL", "setting": "5 min, read-out: Fold induction 5 min, gene(s) yjbIH, 100 μg/mL, 5 min", "value": 5.2}, {"measurement": "fold induction at 100 µg/mL", "setting": "5 min, read-out: Fold induction 5 min, gene(s) ykuNOP, 100 μg/mL, 5 min", "value": 1.4}, {"measurement": "fold induction at 100 µg/mL", "setting": "5 min, read-out: Fold induction 5 min, gene(s) ytrBCDEF, 100 μg/mL, 5 min", "value": 9.1}, {"measurement": "fold induction at 100 µg/mL", "setting": "5 min, read-out: Fold induction 5 min, gene(s) yvcRS, 100 μg/mL, 5 min", "value": 12}, {"measurement": "fold induction at 100 µg/mL", "setting": "5 min, read-out: Fold induction 5 min, gene(s) yvqGFEC, 100 μg/mL, 5 min", "value": 6}, {"measurement": "fold induction at 100 µg/mL", "setting": "5 min, read-out: Fold induction 5 min, gene(s) yvqIH, 100 μg/mL, 5 min", "value": 772}, {"measurement": "fold induction at 100 µg/mL", "setting": "0.25 h, read-out: Fold induction 15 min, gene bcrC, 100 μg/mL, 15 min", "value": "~10"}, {"measurement": "fold induction at 100 µg/mL", "setting": "0.25 h, read-out: Fold induction 15 min, gene cadA (yvgW), 100 μg/mL, 15 min", "value": 9.8}, {"measurement": "fold induction at 100 µg/mL", "setting": "0.25 h, read-out: Fold induction 15 min, gene cotY, 100 μg/mL, 15 min", "value": 5.9}, {"measurement": "fold induction at 100 µg/mL", "setting": "0.25 h, read-out: Fold induction 15 min, gene czcD, 100 μg/mL, 15 min", "value": 3.8}, {"measurement": "fold induction at 100 µg/mL", "setting": "0.25 h, read-out: Fold induction 15 min, gene czcO (trkA), 100 μg/mL, 15 min", "value": 2.8}, {"measurement": "fold induction at 100 µg/mL", "setting": "0.25 h, read-out: Fold induction 15 min, gene ydhK, 100 μg/mL, 15 min", "value": 4.4}, {"measurement": "fold induction at 100 µg/mL", "setting": "0.25 h, read-out: Fold induction 15 min, gene yetG, 100 μg/mL, 15 min", "value": 10}, {"measurement": "fold induction at 100 µg/mL", "setting": "0.25 h, read-out: Fold induction 15 min, gene ykvS, 100 μg/mL, 15 min", "value": 10}, {"measurement": "fold induction at 100 µg/mL", "setting": "0.25 h, read-out: Fold induction 15 min, gene ytzB, 100 μg/mL, 15 min", "value": 11}, {"measurement": "fold induction at 100 µg/mL", "setting": "0.25 h, read-out: Fold induction 15 min, gene yybR, 100 μg/mL, 15 min", "value": 3.7}, {"measurement": "fold induction at 100 µg/mL", "setting": "0.25 h, read-out: Fold induction 15 min, gene(s) bacAB (ytsCD), 100 μg/mL, 15 min", "value": 360}, {"measurement": "fold induction at 100 µg/mL", "setting": "0.25 h, read-out: Fold induction 15 min, gene(s) gerAA/AB, 100 μg/mL, 15 min", "value": 4.2}, {"measurement": "fold induction at 100 µg/mL", "setting": "0.25 h, read-out: Fold induction 15 min, gene(s) ycgRQ, 100 μg/mL, 15 min", "value": 7.9}, {"measurement": "fold induction at 100 µg/mL", "setting": "0.25 h, read-out: Fold induction 15 min, gene(s) ygaCD, 100 μg/mL, 15 min", "value": 12}, {"measurement": "fold induction at 100 µg/mL", "setting": "0.25 h, read-out: Fold induction 15 min, gene(s) yhcYZ-yhdA, 100 μg/mL, 15 min", "value": 14}, {"measurement": "fold induction at 100 µg/mL", "setting": "0.25 h, read-out: Fold induction 15 min, gene(s) yjbIH, 100 μg/mL, 15 min", "value": 7.1}, {"measurement": "fold induction at 100 µg/mL", "setting": "0.25 h, read-out: Fold induction 15 min, gene(s) ykuNOP, 100 μg/mL, 15 min", "value": 12}, {"measurement": "fold induction at 100 µg/mL", "setting": "0.25 h, read-out: Fold induction 15 min, gene(s) ytrBCDEF, 100 μg/mL, 15 min", "value": 9.7}, {"measurement": "fold induction at 100 µg/mL", "setting": "0.25 h, read-out: Fold induction 15 min, gene(s) yvcRS, 100 μg/mL, 15 min", "value": 24}, {"measurement": "fold induction at 100 µg/mL", "setting": "0.25 h, read-out: Fold induction 15 min, gene(s) yvqGFEC, 100 μg/mL, 15 min", "value": 7}, {"measurement": "fold induction at 100 µg/mL", "setting": "0.25 h, read-out: Fold induction 15 min, gene(s) yvqIH, 100 μg/mL, 15 min", "value": 1060}, {"measurement": "Fold induction 15 min", "setting": "gene bcrC", "value": 9.5, "unit": "fold"}, {"measurement": "Fold induction 5 min", "setting": "gene(s) bacAB (ytsCD), 5 min", "value": 282, "unit": "fold"}, {"measurement": "Fold induction 15 min", "setting": "gene(s) bacAB (ytsCD)", "value": 365, "unit": "fold"}, {"measurement": "Fold induction 5 min", "setting": "gene(s) yhcYZ-yhdA, 5 min", "value": 21, "unit": "fold"}, {"measurement": "Fold induction 15 min", "setting": "gene(s) yvcRS", "value": 25, "unit": "fold"}, {"measurement": "Fold induction 5 min", "setting": "gene(s) yvqGFEC, 5 min", "value": 6.1, "unit": "fold"}]}
